These results are taken from a melting point compilation (Tetko et al.; mined from patent text by program, amines drawn as free bases though some values may be those of a salt).

What is called melting point is the temperature, or range, at which the solid turns liquid. `CC(C)N1Cc2ccccc2N(CCN2CCC(c3c[nH]c4cc(F)ccc34)C2)S1(=O)=O` (stereo unspecified) had a melting point of 50.8 to 54.4 °C.

The molecule `CON=Cc1ccc2c(c1)ncn2-c1cccc(-c2ccoc2)c1` showed a melting point of 147 to 148 °C.

For the molecule `CCCC12CCC3C4CCCC=C4CCC3C1CCC2=O` (stereo unspecified), the melting point lay within 89 to 90 °C.

Turning to `Cn1cc(C(=O)Nc2ccccc2-c2cc(F)ccc2F)c(C(F)(F)F)n1`, the melting point is 110 to 112 °C.

Consider `NC(=O)CN1C(=O)C(NC(=O)c2cc3ccccc3[nH]2)C(Cc2ccccc2)Sc2ccccc21` (stereo unspecified), for which the melting point amounted to 275 °C.

`CN(CCO)C(=O)c1cc2ccccc2[nH]1` gave a melting point of 141 to 142 °C.

`CN1CCN(C(=O)Nc2cccc3nc(NC4CCc5ccccc54)ccc23)CC1` (stereo unspecified) registered a melting point of 142 °C.

For `CCOC(=O)c1cn(C2CC2)c2c(CO)c(N3CCOCC3)c(F)cc2c1=O`, the melting point lay in the range of 212 to 216 °C.

As for `COC(=O)c1ccc(C(=O)N2CCC(NC3CCOCC3)CC2)cc1`, the melting point was 129 °C.

On to `O=C1Nc2ccc(Cl)cc2C1(Cl)c1ccccc1OC(F)(F)F` (stereo unspecified), for which the melting point is 185 °C.

In the case of `CC(C)(C)OC(=O)n1c(C#N)ccc1-c1ccc2c(c1)C(C)(C)OC(=O)N2`, the melting point was in the range of 165 to 167 °C.

The molecule `CCOC(=O)COc1nccc(-c2ccccn2)n1` had a melting point of 48 to 53 °C.

In turn, `CC(C)(CO)NC(=O)NCCNCC(O)COc1ccc(O)cc1` (stereo unspecified) returned a melting point of 113 to 130 °C.

`CCn1c(=O)c2c(ncn2CCCCC(O)CO)n(CC)c1=O` (stereo unspecified) had a melting point of 77 to 78 °C.

Regarding `CC(C)c1ccccc1Sc1c(O)cc(-c2ccc(-c3cccnc3)cc2)oc1=O`, the melting point lay in the range of 145 to 147 °C.

In turn, `O=S1(=O)N=C(NC2CCCC2)Nc2cc(Cl)sc21` registered a melting point of 291 to 292 °C.

Turning to `C=C(CC1(CC(=C)C(=O)OC(C)(C)C)C(=O)N(C)C(=O)N(C)C1=O)C(=O)OC(C)(C)C`, the melting point lay within 90 to 91 °C.

`Cc1ncccc1NC(=NC#N)NC(NC(=O)Cc1ccc(Cl)cc1)C(C)(C)C` (stereo unspecified) registered a melting point of 180 to 181 °C.

As for `CCNC(=O)N1CCn2nc(-c3ccc(F)cc3)c(-c3ccncc3)c2N1`, the melting point was 235 to 240 °C.

For the molecule `CN(C)C=Nc1nc2c(s1)C(=O)C(=CN(C)C)CC2`, the melting point lay within 185 to 186 °C.

In turn, `CCOC(=O)c1ccc(NO)cc1` yielded a melting point of 72.5 °C.

On to `O=C(O)c1cnc2occc2c1`, for which the melting point lay in the range of 274 to 275 °C.

On to `C=C(C)C(=O)NCCCCCC(=O)Nc1cc(Cl)c(C)c(Cl)c1O`, for which the melting point fell in the range of 111 to 115 °C.

As for `Cn1cc(C2=C(c3cccc4ccccc34)C(=O)NC2=O)c2ccccc21`, the melting point lay within 258 to 260 °C.

`CNCc1cccc(C2CCN(c3c(F)c(N)c4c(=O)c(C(=O)O)cn(C5CC5)c4c3F)C2)c1` (stereo unspecified) gave a melting point of more than 270 °C.

Take `O=C(O)c1ccccc1C(=O)c1ccc(O)cc1`: the melting point fell in the range of 124 to 128 °C.

Turning to `CN(C)C=C1CN=C(c2ccccc2)c2cc(Cl)ccc2C1=O`, the melting point was 179 to 180 °C.

Turning to `CCN(CC)c1nc2[nH]c3c(c(=O)n2n1)SCCC3`, the melting point lay within 308 to 310 °C.

The molecule `CC(=NOCCCOc1ccccc1)C(=O)O` registered a melting point of 86 to 88 °C.

`CC(C)(O)COc1c(-c2ccc(S(N)(=O)=O)cc2)cnn(-c2ccc(F)c(Cl)c2)c1=O` had a melting point of 176 to 178 °C.

On to `COc1ccc(C2CN(C)CCC2=NO)cc1` (stereo unspecified), for which the melting point lay within 121 to 122 °C.

In the case of `COc1ccc2nc(NC(=O)COC(=O)C(C)C)sc2c1`, the melting point is 141 to 142 °C.

`CC(C(=O)O)c1cccc(NC(=O)NC2N=C(c3ccccc3F)c3ccccc3N(CC(=O)N3CC4CCC(CC4)C3)C2=O)c1` (racemic) displayed a melting point of 187 to 204 °C.

For `Cc1cnc(I)nc1Oc1cc(C(F)(F)F)nn1C`, the melting point was 94 °C.

`CCC(O)(c1ccc(O)cc1)c1ccc(C(F)(F)F)cc1` (stereo unspecified): the melting point fell in the range of 126 to 127 °C.

As for `CC=C(C(=O)OC)c1ccccc1CBr`, the melting point is 64 to 66 °C.

`N#Cc1ccc(C2NC(=O)NC2=O)c(N2CCCC2)c1` (stereo unspecified) had a melting point of 154 °C.

`CC(=Cc1ccc2ccccc2c1)c1ccc(C(=O)O)cc1` yielded a melting point of 238 °C.

As to `Cc1cccc(C(C)(C)C)c1NC(=O)NC1(c2cccs2)CCCCC1`, the melting point lay in the range of 245 to 246 °C.

`CC[C@]1(C(=O)NCC=Cc2ccccc2F)[C@H](C)C1(Cl)Cl` (relative stereo) had a melting point of 103 to 105 °C.

With `O=C(Nc1ccc(C(F)(F)F)cc1)N1CC(NC(=O)C(F)(F)F)C(c2ccc(Cl)cc2)=N1` (stereo unspecified), the melting point fell in the range of 259 to 260 °C.

As for `CCOc1nn(Cc2cccc(OCc3nc(-c4ccccc4)oc3C)n2)cc1CCC(=O)O`, the melting point is 144 to 145 °C.

As to `O=C1CCC(=O)N1Cc1nc2sc3c(c2c(-c2ccc(O)cc2)c1Cl)CCS(=O)C3` (stereo unspecified), the melting point lay in the range of 274 to 276 °C.

Molecule `CC(CCC(=O)NCCCCCC(=O)NCCCCCO)C1CCC2C3C(O)CC4CC(O[Si](C)(C)C(C)(C)C)CCC4(C)C3CC(O)C12C` (stereo unspecified) gave a melting point of 146 to 148 °C.

In turn, `CCCCOc1cc(Oc2ccc(C(F)(F)F)cn2)ccc1CCCOc1c(CC(=O)O)cccc1OC` yielded a melting point of 64 to 65 °C.

`CCOC(=O)C1CN(C(C)=O)CCN1CC=CC(=O)Nc1cc2c(Nc3ccc(F)c(Cl)c3)ncnc2cc1OCC1CC1` (stereo unspecified): the melting point fell in the range of 152 to 156 °C.

In the case of `CCCC[C@H](NC(=O)[C@H](C)NC(=O)OCc1ccccc1)C(=O)CSCc1ccco1`, the melting point was in the range of 85 to 87 °C.

`COc1ccc2c(c1)COc1c-2ccc2c(OC)cccc12` returned a melting point of 166 to 167 °C.

Molecule `O=C1c2ccc([N+](=O)[O-])cc2C(=O)N1CC(=O)N1c2ccccc2N(Cc2ccccc2)C(=O)[C@H]2CCC[C@H]21` (relative stereo) showed a melting point of 196 to 198 °C.

Regarding `O=[N+]([O-])c1ccc(OC23CC4CC(CC(C4)C2)C3)c2ccccc12`, the melting point lay in the range of 126 to 128 °C.

`O=C(NCCCc1c[nH]c(-c2ccc(F)cc2)c1-c1ccncc1)C(F)(F)F`: the melting point was in the range of 229 to 230 °C.

Molecule `CC(=O)OCc1c(C)n(C[C@H]2C[C@@H]2C)c2c(OCc3ccc(F)cc3)nncc12` returned a melting point of 122 to 123 °C.

In turn, `COc1cc(C=C2C(=O)CCc3cc(OC)c(OC)cc32)c([N+](=O)[O-])cc1OC` registered a melting point of 65 to 66 °C.

`Nc1nc(S(N)(=O)=O)c2ncn(C3OC(CO)C(O)C3O)c2n1` (stereo unspecified): the melting point was more than 193 °C.

The molecule `CC(C)(C)NCC(O)c1ccc(N)c(C#N)c1F` (stereo unspecified) had a melting point of 150 to 151 °C.

`CS(=O)c1c[nH]c2c(Sc3nc4cc(Cl)ccc4[nH]3)ccc([N+](=O)[O-])c12` (stereo unspecified) had a melting point of 243 to 246 °C.

`NC(=O)c1ccc(-c2nccc3[nH]c(=O)ccc23)cc1` displayed a melting point of more than 300 °C.

Turning to `Cc1nc(C(F)(F)F)ccc1C(=O)C1=C(O)C(C)(C)CCC1=O`, the melting point was 75 to 77 °C.

`COc1cc(OC)cc(N2CCN(C(=O)Nc3nc(C)c(C)nc3OC)CC2)c1` yielded a melting point of 136 to 137 °C.

On to `COc1ccccc1NC(=O)Nc1nc(N2CCN(c3ccccc3OC(C)C)CC2)nc(N(CCC(=O)O)Cc2ccc(Cl)c(Cl)c2)n1`, for which the melting point was 115 to 118 °C.

Turning to `O=C(Nc1ccc(-n2nc(C(F)(F)F)cc2C2CC2)cc1)c1ccncc1F`, the melting point fell in the range of 143 to 146 °C.
